Assay results from paper PMC8465942, “Cyano- and Ketone-Containing Selenoesters as Multi-Target Compounds against Resistant Cancers” (Cancers, 2021).
Entries after “also recorded” stand apart in the source; their conditions may differ. Where two headings read alike, the source gives them in different places. Marks after values point to notes of the source that are not given here.

Key:
[1] = tested on: HeLa (cervical adenocarcinoma); assay: Cytotoxicity on HeLa cells; assay type: cell-based, human; settings: ratio IC50 non-tumour cells / IC50 cancer cells
HaCaT cell line = assay: Toxicity on HaCaT cells (IC10 used as dose); assay type: cell-based; settings: Homo sapiens
[2] = tested on: resistant Colo 320 colon adenocarcinoma cells expressing the ABCB1 transporter; assay: Checkerboard combination assay with doxorubicin; assay type: cell-based, human
[3] = tested on: HepG2 (hepatocellular carcinoma); assay: Cytotoxicity on HepG2 cells; assay type: cell-based; settings: Homo sapiens
[4] = tested on: HeLa (cervical adenocarcinoma); assay: Cytotoxicity on HeLa cells; assay type: cell-based; settings: Homo sapiens
B16 (skin melanoma) = assay: Cytotoxicity on B16 cells; assay type: cell-based, murine; settings: Mus musculus
[5] = in at least one of the ratios tested
[6] = ratio 0.7:1, starting conc. 6 µM
[7] = ratio 1.4:1, starting conc. 6 µM
[8] = ratio 2.8:1, starting conc. 6 µM
[9] = ratio 5.6:1, starting conc. 6 µM
[10] = ratio 11.2:1, starting conc. 6 µM
[11] = ratio 22.4:1, starting conc. 6 µM
[12] = concentration inhibiting 10% of the population, highest non-toxic concentration, read-out: Dose IC10

Structure (SMILES) | SI MRC-5/HeLa [1] | IC10 (HaCaT cell line; read-out: Dose IC10 (µM)) [µM] | Interaction with doxorubicin [2, 5] | Type of Interaction [2, 6] | Type of Interaction [2, 7] | Type of Interaction [2, 8] | Type of Interaction [2, 9] | Type of Interaction [2, 10] | Type of Interaction [2, 11] | IC50 [3] [µM] | IC50 [4] [µM] | IC50 (B16 (skin melanoma)) [µM] | IC10 (HaCaT cell line; [12]) [µM] | Interaction with doxorubicin ([2]; in all ratios tested) | Type of Interaction ([2]; ratio 1.7:1, starting conc. 15 µM) | Type of Interaction ([2]; ratio 3.4:1, starting conc. 15 µM) | Type of Interaction ([2]; ratio 6.8:1, starting conc. 15 µM) | Type of Interaction ([2]; ratio 13.6:1, starting conc. 15 µM) | Type of Interaction ([2]; ratio 27.2:1, starting conc. 15 µM) | Type of Interaction ([2]; ratio 54.4:1, starting conc. 15 µM)
CC(=O)C[Se]C(=O)c1ccc(Br)cc1 [K3, Se-(2-Oxopropyl) 4-Bromobenzoselenoate] | 1.1 | 0.24 | synergistic manner; also recorded: interact synergistically | Moderate antagonism | Synergism | Moderate synergism | Antagonism | Moderate antagonism | Antagonism | 3.1 | 2.1 | 1.7 | – | – | – | – | – | – | – | –
CC(=O)C[Se]C(=O)c1ccccc1F [K2, Se-(2-Oxopropyl) 2-Fluorobenzoselenoate] | 1.0 | – | – | Antagonism | Antagonism | Slight antagonism | Additive effect | Antagonism | Antagonism | 2.2 | 2.5 | 1.2 | 0.2 | – | – | – | – | – | – | –
CC(=O)C[Se]C(=O)c1ccc(F)c(Cl)c1 [K6, Se-(2-Oxopropyl) 3-Chloro-4-fluorobenzoselenoate] | 1.6 | – | synergistic manner; also recorded: interact synergistically | Synergism | Moderate synergism | Synergism | Synergism | Synergism | Synergism | 2.9 | 2.3 | 1.3 | 0.22 | synergistic interaction | – | – | – | – | – | –
N#CC[Se]C(=O)c1cccc(F)c1 [N2, Se-(Cyanomethyl) 3-Fluorobenzoselenoate] | >6 * | – | synergistic manner; also recorded: synergistic effect | – | – | – | – | – | – | 5.6 | 5.2 | 2.6 | 0.36 | – | Synergism | Antagonism | Synergism | Moderate antagonism | Antagonism | Antagonism
